Values joined by “and” are separate entries in the source; they are usually repeats but may differ in a detail not shown here. Identical values can stand only once.
Legend:
CYP1A2 = biological target: T1, CYP1A2 (Homo sapiens, UniProt P05177); experiment: Metabolism in transgenic HEK293 cells expressing CYP1A2 (LC-MS/MS of supernatant); conditions: for Quantification of metabolites generated from PCB28, 52, and 101: 20 µM parent PCB, 24 h, supernatant; for Metabolite concentration formed, range across cell clones: HEK293CYP1A2 cell clones, 20 µM PCB28, 24 h
T1 sequence (P05177 1-516): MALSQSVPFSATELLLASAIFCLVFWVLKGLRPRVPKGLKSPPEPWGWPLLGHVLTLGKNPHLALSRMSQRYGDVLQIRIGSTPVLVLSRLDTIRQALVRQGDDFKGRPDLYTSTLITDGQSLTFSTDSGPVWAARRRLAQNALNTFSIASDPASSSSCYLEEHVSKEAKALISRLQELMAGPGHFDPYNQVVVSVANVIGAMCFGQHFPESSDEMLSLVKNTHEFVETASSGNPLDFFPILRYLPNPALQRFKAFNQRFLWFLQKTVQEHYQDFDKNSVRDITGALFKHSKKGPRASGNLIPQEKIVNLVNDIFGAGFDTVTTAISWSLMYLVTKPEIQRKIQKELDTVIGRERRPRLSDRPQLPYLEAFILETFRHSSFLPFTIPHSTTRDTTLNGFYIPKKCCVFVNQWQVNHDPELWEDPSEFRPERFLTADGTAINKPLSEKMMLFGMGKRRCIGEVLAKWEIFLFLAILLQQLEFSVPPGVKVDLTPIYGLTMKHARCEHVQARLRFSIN
Method: (§1) For the generation of transgenic cell lines, we used semi-adherent HEK293 cells (DSMZ, ACC305, human embryonic kidney cells) which were cultured on a daily basis in DMEM medium supplemented with 10% (FCS) and 1% penicillin/streptomycin. In a first step CYP1A2, CYP2C8, CYP2C9, CYP3A4, CYP2A6, and CYP2E1 cDNA were cloned into the plasmid pcDNATM3.1/V5-His TOPO® using human liver RNA as a template and using the following primers: CYP1A2 for5′-[…]-3′, CYP1A2 rev 5′-[…]-3′; CYP2C8 for 5′-[…]-3′, CYP2C8 rev 5′-[…]-3′; CYP2C9 for 5′-[…]-3′, CYP2C9 rev 5′-[…]-3′; CYP3A4 for 5′-[…]-3′, CYP3A4 rev 5′-[…]-3′, CYP2A6 for 5′-[…]-3′, CYP2A6 rev 5′-[…]-3′; CYP2E1 for 5′-[…]-3′, CYP2E1 rev 5′-[…]-3′. Final constructs were verified with Sanger DNA sequencing and restriction digestion. For transfection, 3 × 10^6 HEK293 cells were pre-incubated in a 10 cm dish in DMEM medium with 10% FCS, but without antibiotics, for 18 to 24 h. When the cells reached approximately 70% confluency, they were transfected using TransIT-LT1 transfection reagent (Biozol, Eiching, Germany). The TransIT-LT1 reagent was warmed to room temperature and vortexed. 1.63 mL Opti-MEM, 16.25 µL plasmid DNA (1 µg/µL), and 48.75 µL TransIT-LT1 reagent were mixed and incubated for 15 to 30 min. The mixture was then added dropwise to the medium of the cells, and the cells were incubated again at 37 °C and 5% CO2. After 24 h, the medium was replaced with standard medium and geneticin was added for selection (1 mg/mL). Cells were selected for 6–8 weeks in bulk culture, and single cell clones were obtained subsequently by limiting dilution. Each clone was checked for insertion by PCR using genomic DNA as a template.
(§2) Parallel samples were run without the addition of PCBs. At a confluence of 80%, PCBs (20 μM each, dissolved in ethanol) were added and cells were incubated for 24 h before harvest of supernatants. Supernatants were diluted 1:2 with 80 μL acetate buffer 0.1 M (pH = 5.3). 100 μL of this dilution were further incubated with 100 μL of ammonium acetate buffer 0.1 M (pH = 5.3) and 5 μL of β-Glucuronidase/Arylsulfatase enzyme overnight in a drying oven at 37 °C for enzymatic hydrolysis to release conjugated compounds. 50 μL of a mix of internal standards (10 ng/mL) and 600 μL of methanol were added to the samples, then mixed by vortexing for 1 min and centrifuged for 10 min at 3400g. The individual supernatants were transferred to glass LC vials and evaporated to approximately 50 μL at 45 °C under a gentle stream of nitrogen. Finally, 0.1 mol/ L ammonium acetate buffer was added to a final volume of 100 μL and then transferred to an insert for analysis.
(§3) HEK293 cells overexpressing the respective CYP enzymes were seeded onto 6-well plates and were treated with or without 10 µM of the respective probe drug in DMEM medium for 24 hours at 37 °C and 5 % CO2. After incubation 200 µL DMEM were collected, cells were washed with PBS and adherent cells were lysed in 500 µL methanol for 20 minutes. Analytes were measured by LC-MS/MS either in methanol cell lysates or in DMEM supernatant.
(§4) 50 µL of DMEM samples were protein precipitated by adding 200 µL of methanol and were centrifuged for 20 min, 17,000 g and 4°C. Supernatants were diluted in water or 40 % methanol according to dilution factor. Methanol cell lysates were diluted ½ with water and centrifuged for 20 min, 17,000 g and 4°C. 5 µL of the processed samples were injected for LC-MS analysis.

CYP3A4 = CYP3A4 (Homo sapiens, UniProt P08684); experiment: Metabolism in transgenic HEK293 cells expressing CYP3A4; conditions: 20 µM parent PCB, 24 h, supernatant
Chain of CYP3A4 (P08684 whole entry): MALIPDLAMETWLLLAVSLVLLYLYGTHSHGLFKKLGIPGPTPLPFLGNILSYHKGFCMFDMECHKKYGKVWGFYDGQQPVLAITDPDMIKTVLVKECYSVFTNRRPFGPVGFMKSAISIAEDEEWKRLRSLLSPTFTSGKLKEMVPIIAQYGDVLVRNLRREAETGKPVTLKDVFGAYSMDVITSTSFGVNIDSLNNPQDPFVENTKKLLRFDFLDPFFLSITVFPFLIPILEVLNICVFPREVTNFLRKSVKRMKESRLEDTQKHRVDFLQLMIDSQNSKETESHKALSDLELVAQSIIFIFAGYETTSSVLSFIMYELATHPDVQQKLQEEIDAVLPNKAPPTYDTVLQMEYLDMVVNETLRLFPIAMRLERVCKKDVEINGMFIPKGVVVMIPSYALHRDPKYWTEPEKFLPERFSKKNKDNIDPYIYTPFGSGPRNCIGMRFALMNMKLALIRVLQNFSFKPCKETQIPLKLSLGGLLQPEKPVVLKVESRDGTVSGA
Method: as §1, §2, §3, §4

CYP2A6 = biological target: T2, CYP2A6 (Homo sapiens, UniProt P11509); experiment: Metabolism in transgenic HEK293 cells expressing CYP2A6; assay type: in vitro ADME; set-up: V5-His (vector-encoded) (C); expressed in transfected cells; conditions: 20 µM parent PCB, 24 h; for Quantification of metabolites generated from PCB28, 52, and 101: supernatant
T2 sequence (P11509 1-494): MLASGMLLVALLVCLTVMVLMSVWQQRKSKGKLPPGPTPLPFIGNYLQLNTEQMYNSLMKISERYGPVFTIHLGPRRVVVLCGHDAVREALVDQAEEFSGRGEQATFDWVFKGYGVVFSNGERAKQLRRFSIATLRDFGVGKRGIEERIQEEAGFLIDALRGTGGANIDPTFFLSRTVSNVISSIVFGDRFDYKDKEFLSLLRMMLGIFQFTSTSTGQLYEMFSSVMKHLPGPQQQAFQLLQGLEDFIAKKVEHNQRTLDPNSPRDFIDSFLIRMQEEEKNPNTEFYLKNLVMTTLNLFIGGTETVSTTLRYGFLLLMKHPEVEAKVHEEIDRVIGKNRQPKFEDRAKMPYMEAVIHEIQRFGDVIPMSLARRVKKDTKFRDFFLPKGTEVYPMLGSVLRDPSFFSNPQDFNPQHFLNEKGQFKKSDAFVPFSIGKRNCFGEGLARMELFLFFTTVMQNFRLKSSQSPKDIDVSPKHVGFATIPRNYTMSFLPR
Method: as §1, §2, §3, §4

SMILES | Quantification of metabolites generated from PCB28, 52, and 101 (CYP1A2; CYP1A2, clone G5) | Quantification of metabolites generated from PCB28, 52, and 101 (CYP1A2; CYP1A2, clone G8) | Metabolite concentration formed, range across cell clones (CYP1A2) | Quantification of metabolites generated from PCB28, 52, and 101 (CYP3A4; CYP3A4 Clone B4) | Quantification of metabolites generated from PCB28, 52, and 101 (CYP3A4; CYP3A4 Clone D10) | Quantification of metabolites generated from PCB28, 52, and 101 (CYP3A4; CYP3A4 Clone E6) | Quantification of metabolites generated from PCB28, 52, and 101 (CYP2A6; CYP2A6 Clone C4) | Quantification of metabolites generated from PCB28, 52, and 101 (CYP2A6; CYP2A6 Clone C5) | Metabolite concentration formed, range across cell clones (CYP2A6; HEK293CYP2A6 cell lines) | Quantification of metabolites generated from PCB28, 52, and 101 (CYP2A6; CYP2A6 Clone B7)
Oc1cc(Cl)c(-c2ccc(Cl)cc2)cc1Cl [4-OHCB31, 2,4′,5-trichloro-4-biphenylol] | 0,69 nM | 1,11 nM | 0.19–0.30 µg/L and 0.69–1.11 nM | <LOQ | <LOQ | <LOQ | 0,63 nM | 0,11 nM | 0.18–1.31 µg/L and 0.66–4.8 nM | –
Oc1cc(-c2ccc(Cl)cc2)c(Cl)cc1Cl [5-OHCB28, 2,4,4′-trichloro-5-biphenylol] | 6,22 nM | 9,07 nM | 1.7–2.48 µg/L and 6.22–9.07 nM | <LOQ | <LOQ | <LOQ | 1,33 nM | 0,22 nM | – | 1,84 nM

Source: PMC11489226 (Archives of Toxicology, 2024)
